Results taken from patent publication US4965280A, “Antifungal carbinols” (E. I. Du Pont de Nemours and Company, priority 1989, dated 1990).

Legend:
Plasmorpara viticola = test: Example I grape downy mildew; type: in vivo; conditions: read-out: disease control rating, Ex. I
Summary of the method: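 Grape seedlings sprayed to run-off; test suspension 100 or 20 ppm compound, acetone 6% v/v final, 250 ppm TREM 014 in purified water.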

BARNYARDGRASS = test: Test C rice paddy; type: in vivo, Echinochloa crusgalli; conditions: Echinochloa crus-galli, 504 h, 21 days, read-out: plant response; for pest or weed control at 64 g/ha: 0064 G/HA; for pest or weed control at 125 g/ha: 0125 G/HA; for pest or weed control at 250 g/ha: 0250 G/HA; for pest or weed control at 500 g/ha: 0500 G/HA
Source text: (§1) Sixteen cm diameter Airlite plastic pots were partially filled with Tama slit loam soil and the soil saturated with water. Japonica and Indica rice seedlings a the 2.0 to 2.5 leaf stage were transplanted into 1/3 of the pots. Into another third of the pots were transplanted seedling or sprouted tubers of water plantain (Alisma trivale), Scripus (Scirpus paludosus), Cyperus (Cyperus esculentus), and arrowhead (Sagittaria spp.). The remaining pots were planted with barnyardgrass (Echinochloa crusgalli) seeds and sprouted tubes of water chestnut (Eleocharis spp.). These weeds all represent major rice weeds or genera of weeds important in rice. Three to four days after planting, the water level was raised to 3 cm (about 1200 ml/pot) and maintained a this level throughout the test. Chemical treatments were applied directly to the paddy water, within 24 hours of raising the water, after being formulated in a nonphytotoxic solvent. The pots were maintained in the greenhouse.

RICE JAP EFF = test: Test C rice paddy; type: in vivo, Japonica rice; conditions: Oryza sativa, 504 h, 21 days, read-out: plant response; for pest or weed control at 64 g/ha: 0064 G/HA; for pest or weed control at 125 g/ha: 0125 G/HA; for pest or weed control at 250 g/ha: 0250 G/HA; for pest or weed control at 500 g/ha: 0500 G/HA
Source text: as §1

ARROWHEAD = test: Test C rice paddy; type: in vivo, Sagittaria spp.; conditions: Sagittaria, 504 h, 21 days, read-out: plant response; for pest or weed control at 64 g/ha: 0064 G/HA; for pest or weed control at 125 g/ha: 0125 G/HA; for pest or weed control at 250 g/ha: 0250 G/HA; for pest or weed control at 500 g/ha: 0500 G/HA
Source text: as §1

Phytophthora infestans = test: whole plant or invertebrate; type: in vivo; conditions: Phytophthora infestans, in Solanum lycopersicum, read-out: disease control rating, Ex. H, 100 PPM
WATER PLAINTAIN = test: Test C rice paddy; type: in vivo, Alisma trivale; conditions: 504 h, 21 days, read-out: plant response; for pest or weed control at 64 g/ha: 0064 G/HA; for pest or weed control at 125 g/ha: 0125 G/HA; for pest or weed control at 250 g/ha: 0250 G/HA; for pest or weed control at 500 g/ha: 0500 G/HA
Source text: as §1

Rhizoctonia solani = test: Example F rice sheath blight; type: in vivo; conditions: Rhizoctonia solani, 144 h, 100 PPM; read-out: disease control rating, Ex. F
Summary of the method: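 Application rates were 100 or 20 ppm, delivered as a foliar spray to the point of run-off on rice seedlings. The formulation used 6% acetone in water with 250 ppm surfactant.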

[1] = test system: Erysiphe graminis f. sp. tritici; test: Example D wheat powdery mildew; type: in vivo; conditions: Blumeria graminis, 144 h; 100 PPM; read-out: disease control rating, Ex. D
Summary of the method: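 First, compound taken up in acetone, 6% of the end volume. Next, suspended in water with 250 ppm polyhydric alcohol esters at 100 or 20 ppm. Last, applied to wheat seedlings until run-off.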

Puccinia recondita = test: Example G wheat leaf rust; type: in vivo; conditions: 100 PPM, read-out: disease control rating, Ex. G
Pythium aphanadermatum = test: Example J cucumber damping off; type: in vivo; conditions: Pythium, 336 h; 5 kg/ha; read-out: disease control rating, Ex. J
Summary of the method: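 This cucumber damping-off test used soil and seeds infested with a sand–cereal preparation carrying mycelium of Pythium aphanadermatum. Incubation took place in a growth chamber held at 30° C. for 14 days. Afterwards, the extent of disease was scored as a disease control rating.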

SCIRPUS = test: Test C rice paddy; type: in vivo, Scirpus paludosus; conditions: Bolboschoenus maritimus, 504 h, 21 days, read-out: plant response; for pest or weed control at 64 g/ha: 0064 G/HA; for pest or weed control at 125 g/ha: 0125 G/HA; for pest or weed control at 250 g/ha: 0250 G/HA; for pest or weed control at 500 g/ha: 0500 G/HA
Source text: as §1

C=C(c1ccc(F)cc1)C(O)(Cn1ncnc1I)c1ccc(F)cc1F (stereo not drawn) [Example 1381]
40%: pest or weed control at 500 g/ha (RICE JAP EFF)
60%: pest or weed control at 250 g/ha (BARNYARDGRASS) | pest or weed control at 1000 g/ha (RICE JAP EFF)
0%: pest or weed control at 64 g/ha (RICE JAP EFF) | pest or weed control at 125 g/ha (RICE JAP EFF) | pest or weed control at 64 g/ha (ARROWHEAD) | pest or weed control at 125 g/ha (ARROWHEAD) | pest or weed control at 250 g/ha (ARROWHEAD) | pest or weed control at 500 g/ha (ARROWHEAD) | pest or weed control at 1000 g/ha (ARROWHEAD) | pest or weed control at 100 ppm (Phytophthora infestans) | pest or weed control at 64 g/ha (WATER PLAINTAIN) | pest or weed control at 125 g/ha (WATER PLAINTAIN) | pest or weed control at 250 g/ha (WATER PLAINTAIN) | pest or weed control at 500 g/ha (WATER PLAINTAIN) | pest or weed control at 1000 g/ha (WATER PLAINTAIN) | pest or weed control at 5000 g/ha (Pythium aphanadermatum) | pest or weed control at 64 g/ha (SCIRPUS) | pest or weed control at 125 g/ha (SCIRPUS) | pest or weed control at 250 g/ha (SCIRPUS) | pest or weed control at 500 g/ha (SCIRPUS)
73%: pest or weed control at 100 ppm (Rhizoctonia solani)
20%: pest or weed control at 250 g/ha (RICE JAP EFF)
100%: pest or weed control at 500 g/ha (BARNYARDGRASS) | pest or weed control at 1000 g/ha (BARNYARDGRASS) | pest or weed control at 100 ppm (Puccinia recondita)
98%: pest or weed control at 100 ppm [1]
55%: pest or weed control at 64 g/ha (BARNYARDGRASS) | pest or weed control at 125 g/ha (BARNYARDGRASS)
78%: pest or weed control at 100 ppm (Plasmorpara viticola)
30%: pest or weed control at 1000 g/ha (SCIRPUS)

C=C(c1ccc(Cl)cc1)C(O)(Cn1cncn1)c1ccccc1F (stereo not drawn) [Example 669]
0%: pest or weed control at 100 ppm (Plasmorpara viticola) | pest or weed control at 64 g/ha (RICE JAP EFF) | pest or weed control at 125 g/ha (RICE JAP EFF) | pest or weed control at 250 g/ha (RICE JAP EFF) | pest or weed control at 500 g/ha (RICE JAP EFF) | pest or weed control at 1000 g/ha (RICE JAP EFF) | pest or weed control at 64 g/ha (ARROWHEAD) | pest or weed control at 125 g/ha (ARROWHEAD) | pest or weed control at 250 g/ha (ARROWHEAD) | pest or weed control at 500 g/ha (ARROWHEAD) | pest or weed control at 1000 g/ha (ARROWHEAD) | pest or weed control at 100 ppm (Phytophthora infestans) | pest or weed control at 64 g/ha (WATER PLAINTAIN) | pest or weed control at 125 g/ha (WATER PLAINTAIN) | pest or weed control at 250 g/ha (WATER PLAINTAIN) | pest or weed control at 500 g/ha (WATER PLAINTAIN) | pest or weed control at 1000 g/ha (WATER PLAINTAIN) | pest or weed control at 5000 g/ha (Pythium aphanadermatum) | pest or weed control at 64 g/ha (SCIRPUS) | pest or weed control at 125 g/ha (SCIRPUS) | pest or weed control at 250 g/ha (SCIRPUS) | pest or weed control at 500 g/ha (SCIRPUS)
90%: pest or weed control at 64 g/ha (BARNYARDGRASS) | pest or weed control at 500 g/ha (BARNYARDGRASS)
98%: pest or weed control at 125 g/ha (BARNYARDGRASS) | pest or weed control at 250 g/ha (BARNYARDGRASS)
100%: pest or weed control at 1000 g/ha (BARNYARDGRASS) | pest or weed control at 100 ppm (Rhizoctonia solani) | pest or weed control at 100 ppm [1] | pest or weed control at 100 ppm (Puccinia recondita)
30%: pest or weed control at 1000 g/ha (SCIRPUS)

C=C(c1ccc(F)cc1)C(O)(Cn1ncnc1S)c1ccc(F)cc1F (stereo not drawn) [Example 1304]
80%: pest or weed control at 1000 g/ha (SCIRPUS)
65%: pest or weed control at 1000 g/ha (WATER PLAINTAIN) | pest or weed control at 250 g/ha (SCIRPUS)
30%: pest or weed control at 1000 g/ha (ARROWHEAD)
0%: pest or weed control at 64 g/ha (RICE JAP EFF) | pest or weed control at 125 g/ha (RICE JAP EFF) | pest or weed control at 250 g/ha (RICE JAP EFF) | pest or weed control at 500 g/ha (RICE JAP EFF) | pest or weed control at 64 g/ha (ARROWHEAD) | pest or weed control at 125 g/ha (ARROWHEAD) | pest or weed control at 250 g/ha (ARROWHEAD) | pest or weed control at 500 g/ha (ARROWHEAD) | pest or weed control at 100 ppm (Phytophthora infestans) | pest or weed control at 64 g/ha (WATER PLAINTAIN) | pest or weed control at 125 g/ha (WATER PLAINTAIN) | pest or weed control at 250 g/ha (WATER PLAINTAIN) | pest or weed control at 500 g/ha (WATER PLAINTAIN) | pest or weed control at 5000 g/ha (Pythium aphanadermatum) | pest or weed control at 64 g/ha (SCIRPUS) | pest or weed control at 125 g/ha (SCIRPUS)
18%: pest or weed control at 100 ppm (Plasmorpara viticola)
88%: pest or weed control at 100 ppm (Rhizoctonia solani)
100%: pest or weed control at 125 g/ha (BARNYARDGRASS) | pest or weed control at 250 g/ha (BARNYARDGRASS) | pest or weed control at 1000 g/ha (BARNYARDGRASS) | pest or weed control at 100 ppm [1] | pest or weed control at 100 ppm (Puccinia recondita)
40%: pest or weed control at 1000 g/ha (RICE JAP EFF)
98%: pest or weed control at 500 g/ha (BARNYARDGRASS)
70%: pest or weed control at 500 g/ha (SCIRPUS)
85%: pest or weed control at 64 g/ha (BARNYARDGRASS)
